Measurements taken from patent US10183942B2, “JAK kinase inhibitor compounds for treatment of respiratory disease” (THERAVANCE BIOPHARMA R&D IP, LLC, priority 2015, dated 2019).

What was measured:
[1] = Pharmacokinetics in plasma and lung in mouse; type: in vivo; conditions: oral aspiration 0.2 mg/mL 50 uL, lung AUC / plasma AUC
Method: Plasma and lung levels of test compounds and ratios thereof were determined in the following manner. BALB/c mice from Charles River Laboratories were used in the assay. Test compounds were individually formulated in 20% propylene glycol in pH 4 citrate buffer at a concentration of 0.2 mg/mL and 50 uL of the dosing solution was introduced into the trachea of a mouse by oral aspiration. At various time points (typically 0.167, 2, 6, 24 hr) post dosing, blood samples were removed via cardiac puncture and intact lungs were excised from the mice. Blood samples were centrifuged (Eppendorf centrifuge, 5804R) for 4 minutes at approximately 12,000 rpm at 4° C. to collect plasma. Lungs were padded dry, weighed, and homogenized at a dilution of 1:3 in sterile water. Plasma and lung levels of test compound were determined by LC-MS analysis against analytical standards constructed into a standard curve in the test matrix. A lung to plasma ratio was determined as the ratio of the lung AUC in μg hr/g to the plasma AUC in […], where AUC is conventionally defined as the area under the curve of test compound concentration vs. time.

JAK1 = JAK1 (Homo sapiens (Human), UniProt P23458)
Chain of JAK1 (P23458 whole entry): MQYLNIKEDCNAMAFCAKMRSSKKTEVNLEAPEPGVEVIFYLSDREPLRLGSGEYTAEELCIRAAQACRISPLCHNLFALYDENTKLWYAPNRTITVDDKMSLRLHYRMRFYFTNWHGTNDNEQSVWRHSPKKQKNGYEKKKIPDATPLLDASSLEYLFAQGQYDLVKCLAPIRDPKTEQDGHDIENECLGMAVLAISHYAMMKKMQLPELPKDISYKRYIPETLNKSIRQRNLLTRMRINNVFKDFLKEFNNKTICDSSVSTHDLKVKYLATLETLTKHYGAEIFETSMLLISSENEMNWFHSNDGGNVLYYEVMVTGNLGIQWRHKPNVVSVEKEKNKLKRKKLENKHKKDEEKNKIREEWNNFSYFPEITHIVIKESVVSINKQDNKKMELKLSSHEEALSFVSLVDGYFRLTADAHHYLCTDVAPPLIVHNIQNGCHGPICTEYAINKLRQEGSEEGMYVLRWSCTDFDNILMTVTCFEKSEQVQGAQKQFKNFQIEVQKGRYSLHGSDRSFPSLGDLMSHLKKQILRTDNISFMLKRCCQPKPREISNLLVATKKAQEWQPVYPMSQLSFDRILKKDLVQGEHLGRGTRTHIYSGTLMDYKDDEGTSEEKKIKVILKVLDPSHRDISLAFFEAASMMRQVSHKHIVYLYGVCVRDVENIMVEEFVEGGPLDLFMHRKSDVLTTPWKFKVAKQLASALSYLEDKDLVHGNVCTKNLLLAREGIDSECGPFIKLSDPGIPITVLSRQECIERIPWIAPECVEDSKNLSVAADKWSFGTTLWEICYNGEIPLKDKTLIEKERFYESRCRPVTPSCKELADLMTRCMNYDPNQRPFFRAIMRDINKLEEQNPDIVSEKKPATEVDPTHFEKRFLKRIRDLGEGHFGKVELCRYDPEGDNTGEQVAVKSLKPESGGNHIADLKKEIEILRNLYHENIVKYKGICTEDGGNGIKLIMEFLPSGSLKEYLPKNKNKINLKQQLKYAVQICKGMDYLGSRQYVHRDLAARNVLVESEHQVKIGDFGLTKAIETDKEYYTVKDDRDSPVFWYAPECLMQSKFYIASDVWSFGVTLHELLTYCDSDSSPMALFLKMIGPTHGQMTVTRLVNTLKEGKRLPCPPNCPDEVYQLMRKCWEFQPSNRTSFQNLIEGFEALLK

[2] = system: IL-13 induced pSTAT6 induction in lung tissue; assay: Murine model of IL-13 induced pSTAT6 induction in lung tissue; type: in vivo; conditions: mouse lung; for lung concentration smaller than that of the corresponding compound of the invention by a factor: pharmacodynamic assay, C-1 vs 1, C-2 vs 7, C-3 vs 13, C-4 vs 6; for inhibition of STAT6 phosphorylation in the pharmacodynamic assay: IL-13 challenge 4 h after dose
Method: 11-13 is an important cytokine underlying the pathophysiology of asthma (Kudlacz et al. Eur. J. Pharmacol, 2008, 582, 154-161). IL-13 binds to cell surface receptors activating members of the Janus family of kinases (JAK) which then phosphorylate STAT6 and subsequently activates further transcription pathways. In the described model, a dose of IL-13 was delivered locally into the lungs of mice to induce the phosphorylation of STAT6 (pSTAT6) which is then measured as the endpoint.
Adult balb/c mice from Harlan were used in the assay. On the day of study, animals were lightly anesthetized with isoflurane and administered either vehicle or test compound (0.5 mg/mL, 50 μL total volume over several breaths) via oral aspiration. Animals were placed in lateral recumbency post dose and monitored for full recovery from anesthesia before being returned to their home cage. Four hours later, animals were once again briefly anesthetized and challenged with either vehicle or IL-13 ([…] total dose delivered, 50 μL total volume) via oral aspiration before being monitored for recovery from anesthesia and returned to their home cage. One hour after vehicle or IL-13 administration, lungs were collected for both pSTAT6 detection using an anti-pSTAT6 ELISA (rabbit mAb capture/coating antibody; mouse mAb detection/report antibody: anti-pSTAT6-pY641; secondary antibody: anti-mouse IgG-HRP) and analyzed for total drug concentration as described above in Assay 4.
Selected compounds of the invention were tested in the assay. Activity in the model is evidenced by a decrease in the level of pSTAT6 present in the lungs of treated animals at 5 hours compared to the vehicle treated, IL-13 challenged control animals. The difference between the control animals which were vehicle-treated, IL-13 challenged and the control animals which were vehicle-treated, vehicle challenged dictated the 0% and 100% inhibitory effect, respectively, in any given experiment.

[3] = Dynamic moisture sorption assessment; type: physicochemical
Method: Dynamic moisture sorption (DMS) measurement was performed using a VTI atmospheric microbalance, SGA-100 system (VTI Corp., Hialeah, Fla. 33016). A weighed sample was used and the humidity was lowest possible value (close to 0% RH) at the start of the analysis. The DMS analysis consisted of an initial drying step (˜0% RH) for 120 minutes, followed by two cycles of sorption and desorption with a scan rate of 5% RH/step over the humidity range of 5% RH to 90% RH. The DMS run was performed isothermally at 25° C.

[4] = system: interleukin-13 induced STAT6 phosphorylation in BEAS-2B human lung epithelial cells; assay: Cellular JAKI potency assay (AlphaScreen, BEAS-2B); type: cell-based; conditions: C-1 vs 1, C-2 vs 7, C-3 vs 13, C-4 vs 6

| Lung to Plasma ratio Assay 4 [1] | SMILES | Ki (JAK1) | other results |
| --- | --- | --- | --- |
| A (A denotes a ratio >100) | CCc1cc(O)c(F)cc1-c1ccc2c(-c3nc4c([nH]3)CCN(C[C@H]3COCCN3)C4)n[nH]c2c1 [Example 13, (S)-5-Ethyl-2-fluoro-4-(3-(5-(morpholin-3-ylmethyl)-4,5,6,7-tetrahydro-1H-imidazo[4,5-c]pyridin-2-yl)-1H-indazol-6-yl)phenol] | – | – |
| – | CCc1cc(O)c(F)cc1-c1ccc2c(-c3nc4c([nH]3)CCN(C3CC(C)C3)C4)n[nH]c2c1 (stereo not shown) [Example C-1, 5-Ethyl-2-fluoro-4-(3-(5-(3-methylcyclobutyl)-4,5,6,7-tetrahydro-1H-imidazo[4,5-c]pyridin-2-yl)-1H-indazol-6-yl)phenol] | – | lung concentration smaller than that of the corresponding compound of the invention by a factor [2]: 36 |
| – | CCc1cc(O)c(F)cc1-c1ccc2c(-c3nc4c([nH]3)CCN(C3CCN(C)CC3)C4)n[nH]c2c1 [crystalline hydrate, Crystalline hydrate of 5-ethyl-2-fluoro-4-(3-(5-(1-methylpiperidin-4-yl)-4,5,6,7-tetrahydro-1H-imidazo[4,5-c]pyridin-2-yl)-1H-indazol-6-yl)phenol] | – | weight gain in dynamic moisture sorption ([3]; 5% to 90% relative humidity, about 25° C.): less than 0.12%; hygroscopicity ([3]; two cycles of sorption and desorption): non-hygroscopic |
| – | CCc1cc(O)c(F)cc1-c1ccc2c(-c3nc4c([nH]3)CCN(CCC(C)C)C4)n[nH]c2c1 [Example C-2] | – | fold less potent than the corresponding compound of the invention in the BEAS-2B cellular assay [4]: 6 fold; lung concentration smaller than that of the corresponding compound of the invention by a factor [2]: 52 |
| A (A denotes a ratio >100) | CCc1cc(O)c(F)cc1-c1ccc2c(-c3nc4c([nH]3)CCN(CCN3CCC[C@@H]3C)C4)n[nH]c2c1 [Example 15, (S)-5-ethyl-2-fluoro-4-(3-(5-(2-(2-methylpyrrolidin-1-yl)ethyl)-4,5,6,7-tetrahydro-1H-imidazo[4,5-c]pyridin-2-yl)-1H-indazol-6-yl)phenol] | – | – |
| – | CCc1cc(O)c(F)cc1-c1ccc2c(-c3nc4c([nH]3)CCN(CC3CCCOC3)C4)n[nH]c2c1 (stereo not shown) [Example C-3] | – | fold less potent than the corresponding compound of the invention in the BEAS-2B cellular assay [4]: 3 fold; lung concentration smaller than that of the corresponding compound of the invention by a factor [2]: 13 |
| – | CCc1cc(O)c(F)cc1-c1ccc2c(-c3nc4c([nH]3)CCN(C3CN(CCC#N)C3)C4)n[nH]c2c1 [Example 1-8] | < 100 pM | – |
| – | CCc1cc(O)c(F)cc1-c1ccc2c(-c3nc4c([nH]3)CCN(C3CN(CC)C3)C4)n[nH]c2c1 [Example 1-3] | < 100 pM | – |
| – | CCc1cc(O)c(F)cc1-c1ccc2c(-c3nc4c([nH]3)CCN(CCNC3(C#N)CC3)C4)n[nH]c2c1 [Example 3-1] | – | inhibition of STAT6 phosphorylation in the pharmacodynamic assay [2]: exceptions |
| – | CCc1cc(O)c(F)cc1-c1ccc2c(-c3nc4c([nH]3)CCN(C3CN(CCOC)C3)C4)n[nH]c2c1 [Example 1-6] | < 100 pM | – |
| – | CCc1cc(O)c(F)cc1-c1ccc2c(-c3nc4c([nH]3)CCN(C3CN(CCO)C3)C4)n[nH]c2c1 [Example 1-1] | < 100 pM | – |
| – | CCc1cc(O)c(F)cc1-c1ccc2c(-c3nc4c([nH]3)CCN(C3CCNCC3)C4)n[nH]c2c1 [Example 2-3] | < 100 pM | – |
| A (A denotes a ratio >100) | CCc1cc(O)c(F)cc1-c1ccc2c(-c3nc4c([nH]3)CCN(CCNC3CC(OC)C3)C4)n[nH]c2c1 (stereo not shown) [Example 8, 5-Ethyl-2-fluoro-4-(3-(5-(2-((3-methoxycyclobutyl)amino)ethyl)-4,5,6,7-tetrahydro-1H-imidazo[4,5-c]pyridin-2-yl)-1H-indazol-6-yl)phenol] | – | – |
| A (A denotes a ratio >100) | CCc1cc(O)c(F)cc1-c1ccc2c(-c3nc4c([nH]3)CCN(C[C@@H]3CCCN3C)C4)n[nH]c2c1 [Example 11, (S)-5-ethyl-2-fluoro-4-(3-(5-((1-methylpyrrolidin-2-yl)methyl)-4,5,6,7-tetrahydro-1H-imidazo[4,5-c]pyridin-2-yl)-1H-indazol-6-yl)phenol] | – | – |
| A (A denotes a ratio >100) | CCc1cc(O)c(F)cc1-c1ccc2c(-c3nc4c([nH]3)CCN(CCN(C)CC(C)C)C4)n[nH]c2c1 [Example 3-33] | – | – |
| – | CCc1cc(O)c(F)cc1-c1ccc2c(-c3nc4c([nH]3)CCN(C3CCC(C)CC3)C4)n[nH]c2c1 (stereo not shown) [Example C-4] | – | fold less potent than the corresponding compound of the invention in the BEAS-2B cellular assay [4]: 6 fold; lung concentration smaller than that of the corresponding compound of the invention by a factor [2]: 23 |
| – | CCc1cc(O)c(F)cc1-c1ccc2c(-c3nc4c([nH]3)CCN(C3CN(C5CCS(=O)(=O)C5)C3)C4)n[nH]c2c1 (stereo not shown) [Example 1-15] | – | inhibition of STAT6 phosphorylation in the pharmacodynamic assay [2]: exceptions |
| A (A denotes a ratio >100) | CCc1cc(O)c(F)cc1-c1ccc2c(-c3nc4c([nH]3)CCN(C[C@@H]3COCCN3)C4)n[nH]c2c1 [Example 14, (R)-5-Ethyl-2-fluoro-4-(3-(5-(morpholin-3-ylmethyl)-4,5,6,7-tetrahydro-1H-imidazo[4,5-c]pyridin-2-yl)-1H-indazol-6-yl)phenol] | – | – |
| – | CCc1cc(O)c(F)cc1-c1ccc2c(-c3nc4c([nH]3)CCN(C3CCNC3)C4)n[nH]c2c1 (stereo not shown) [Example 9-1] | < 100 pM | – |

| SMILES | Lung to Plasma ratio Assay 4 [1] | Ki (JAK1) | other results |
| --- | --- | --- | --- |
| CCc1cc(O)c(F)cc1-c1ccc2c(-c3nc4c([nH]3)CCN(CC3CNC3)C4)n[nH]c2c1 [Example 14-7] | A (A denotes a ratio >100) | < 100 pM | – |
